Experimental data taken from patent US8487111B2, “Substituted oxazolidinones and their use” (Bayer Intellectual Property GmbH, priority 2007, dated 2013).

Columns and labels:
[1] = target: factor Xa (Homo sapiens (Human), UniProt P00742); test: Determination of the factor Xa-inhibitory activity in plasma samples (RVV-activated factor X, chromogenic substrate); assay type: biochemical; settings: factor Xa inhibition in citrate plasma (Octapharma), RVV-stimulated, ChromozymX substrate
Protocol: a.4) Determination of the Factor Xa-Inhibitory Activity of the Potential Inhibitors in Plasma Samples
To determine the inhibition of factor Xa in plasma samples, the factor X present in plasma is activated by a protease from rattlesnake toxin. The factor Xa activity or its inhibition by potential inhibitors is then measured by addition of a chromogenic substrate.
Various concentrations of the substances to be tested are dissolved in dimethyl sulphoxide and mixed with an aqueous refludan solution (10 μg/ml). In clear 96-well plates having a flat bottom, 30 μl of citrate plasma (Octapharma) are mixed with 10 μl of the substance dilution. Then, either 20 μl of a solution of a rattlesnake toxin (Russel viper venom (RVV); RVV reagent: Pentapharm 121-06, final concentration 0.6 mU) in an aqueous calcium chloride solution buffer (final concentration of calcium chloride 0.05 M) or 20 μl of the aqueous calcium chloride solution (final concentration of calcium chloride 0.05 M) without RVV reagent (as reference for an unstimulated sample) are added. After addition of 20 μl of ChromozymX substrate (final concentration 1.6 mmol/l, Bachem L-1565, diluted in water) the samples are measured in a SpectraFluor Reader using a measurement filter of 405 nm each minute over a period of 20 minutes. The IC50 value is determined when about 70% of the maximum signal is reached (about 12 min).

[2] = target: thrombin (Homo sapiens (Human), UniProt P00734); test: Determination of the thrombin-inhibitory activity in plasma samples (ecarin, fluorogenic thrombin substrate); assay type: biochemical; settings: thrombin inhibition in citrate plasma (Octapharma), ecarin-stimulated
Protocol: a.5) Determination of the Thrombin-Inhibitory Activity of the Potential Inhibitors in Plasma Samples
Various concentrations of the substances to be tested are dissolved in dimethyl sulphoxide and diluted with water. In white 96-well plates having a flat bottom, 20 μl of substance dilution are mixed with 20 μl of ecarin solution (ecarin reagent, from Sigma E-0504, final concentration 20 mU per batch) in Ca buffer (200 mM Hepes+560 mM sodium chloride+10 mM calcium chloride+0.4% PEG) or with 20 μl of Ca buffer (as unstimulated control). Furthermore, 20 μl of fluorogenic thrombin substrate (from Bachem I-1120, final concentration 50 μmol/l) and 20 μl of citrate plasma (from Octapharma) are added and homogenized thoroughly. The plate is measured in a SpectraFluorplus Reader using an excitation filter of 360 nm and an emission filter of 465 nm each minute over a period of 20 minutes. The IC50 value is determined when about 70% of the maximum signal is reached (about 12 min).

Chain of factor Xa (P00742 whole entry, looked up): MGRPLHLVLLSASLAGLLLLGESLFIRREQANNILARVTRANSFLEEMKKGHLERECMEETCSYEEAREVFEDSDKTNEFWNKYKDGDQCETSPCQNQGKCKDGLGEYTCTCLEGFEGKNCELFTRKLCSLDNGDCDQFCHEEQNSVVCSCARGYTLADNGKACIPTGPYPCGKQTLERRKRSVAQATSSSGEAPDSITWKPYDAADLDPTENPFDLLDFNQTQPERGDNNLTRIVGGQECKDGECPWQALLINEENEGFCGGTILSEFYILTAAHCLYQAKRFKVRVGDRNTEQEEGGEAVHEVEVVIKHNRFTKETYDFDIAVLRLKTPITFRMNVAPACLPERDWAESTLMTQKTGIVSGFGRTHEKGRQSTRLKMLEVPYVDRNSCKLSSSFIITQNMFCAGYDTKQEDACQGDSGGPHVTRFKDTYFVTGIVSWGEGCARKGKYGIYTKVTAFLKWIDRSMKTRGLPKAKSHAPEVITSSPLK
Chain of factor Xa (P00742 whole entry, looked up): as above

Question: Which results are given for COCc1cc(N2C[C@H](CNC(=O)c3ccc(Cl)s3)OC2=O)ccc1-n1cccc(CCO)c1=O [Example 8]?
Answer: IC50 [1]: 167 nM; IC50 [2]: 16 nM

Question: With Cc1cc(N2C[C@H](CNC(=O)c3ccc(Cl)s3)OC2=O)ccc1-n1cccc(CCO)c1=O [Example 6, 5-Chloro-N-[((5S)-3-{4-[3-(2-hydroxyethyl)-2-oxopyridin-1(2H)-yl]-3-methylphenyl}-2-oxo-1,3-oxazolidin-5-yl)methyl]thiophene-2-carboxamide] as the compound, how does the IC50 [1] read?
Answer: 70 nM

Question: And the IC50 [2]?
Answer: 186 nM

Question: What does the source list for Cc1cc(N2C[C@H](CNC(=O)c3ccc(Cl)s3)OC2=O)ccc1-n1cccc(CO)c1=O [Example 2, 5-Chloro-N-[((5S)-3-{4-[3-(hydroxymethyl)-2-oxopyridin-1(2H)-yl]-3-methylphenyl}-2-oxo-1,3-oxazolidin-5-yl)methyl]thiophene-2-carboxamide]?
Answer: IC50 [1]: 21 nM; IC50 [2]: 198 nM

Question: With Cc1cc(N2C[C@H](CNC(=O)c3ccc(Cl)s3)OC2=O)ccc1-n1cccc(CCCO)c1=O [Example 10, 5-Chloro-N-{[(5S)-3-{4-[3-(3-hydroxypropyl)-2-oxopyridin-1(2H)-yl]-3-methylphenyl}-2-oxo-1,3-oxazolidin-5-yl]methyl}thiophene-2-carboxamide] as the compound, how does the IC50 [1] read?
Answer: 40 nM

Question: What about the IC50 [2] of the same compound?
Answer: 74 nM
